Laboratory results reported in US12030912B2, “Cationic steroidal antimicrobial compounds with urethane linkages” (Brigham Young University, priority 2020, dated 2024).
In brackets after ≈: the same amount, converted by molar mass. Read-outs that look alike come from different tables or passages of the source.

Key:
[1] = tested on: methicillin resistant Staphylococcus aureus (MRSA) BAA-41; assay: Minimum inhibitory concentration (MIC), antimicrobial activity; assay type: cell-based; conditions: Pathogen MRSA BAA-41
Experimental: (§1) The antimicrobial activity of CSA-255 was determined in comparison to CSA-44, a CSA compound known to have very high antimicrobial activity compared to other CSAs. The microbes used in the comparative test was were methicillin resistant Staphylococcus aureus (MRSA) BAA-41 and Pseudomonas aeruginosa (PA01 47085).

[2] = tested on: Pseudomonas aeruginosa (PA01 47085); assay: as above; assay type: cell-based; conditions: Pathogen PA01 47085
Experimental: as §1

MIC [1] [µg/mL] | MIC [2] [µg/mL] | SMILES | MIC ([1]; Staphylococcus aureus, read-out: MIC) [µg/mL] | MIC ([2]; Pseudomonas aeruginosa, read-out: MIC) [µg/mL]
2 (≈ 2.72 µM) | 2 (≈ 2.72 µM) | CCCCCCCCOC(=O)CC[C@@H](C)[C@H]1CC[C@H]2[C@@H]3[C@H](OC(=O)CCN)C[C@@H]4C[C@H](OC(=O)CCN)CC[C@]4(C)[C@H]3C[C@H](OC(=O)CCN)[C@]12C [CSA-44] |  | 
 |  | CCCCCCCCNC(=O)CC[C@@H](C)[C@H]1CC[C@H]2[C@@H]3[C@H](OC(=O)NCCN)C[C@@H]4C[C@H](OC(=O)NCCN)CC[C@]4(C)[C@H]3C[C@H](OC(=O)NCCN)[C@]12C [CSA-255] | 4 (≈ 5.14 µM) | 2 (≈ 2.57 µM)
